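How tested: cells in 96-well plates exposed to compound for 48 hours at five concentrations. Abbreviation: GI50, concentration required for 50% inhibition of growth. TGI denotes the concentration required for complete inhibition of growth.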
Assays:
Experiment in all cases: DTP human tumour cell line panel, 48 h
[1] = test system: CAKI-1 renal
[2] = test system: SNB-19 CNS
[3] = test system: MCF7 breast
[4] = test system: HS 578T breast
[5] = test system: T-47D breast
[6] = test system: SK-MEL-28 melanoma
[7] = test system: RXF 393 renal
[8] = test system: HCT-116 colon
[9] = test system: HCT-15 colon
[10] = test system: DU-145 prostate
[11] = test system: K-562 leukemia
[12] = test system: UACC-257 melanoma
[13] = test system: U251 CNS
[14] = test system: MOLT-4 leukemia
[15] = test system: 786-0 renal
[16] = test system: TK-10 renal
[17] = test system: SK-MEL-5 melanoma
[18] = test system: EKVX NSCLC
[19] = test system: MDA-MB-231 breast
[20] = test system: MDA-MB-435
[21] = test system: CCRF-CEM leukemia
[22] = test system: SN12C renal
[23] = test system: SF-295 CNS
[24] = test system: HCC-2998 colon
[25] = test system: BT-549 breast
[26] = test system: NCI-H23 lung
[27] = test system: ACHN renal
[28] = test system: SK-MEL-2 melanoma
[29] = test system: OVCAR-5 ovarian
[30] = test system: SNB-75 CNS
[31] = test system: PC-3 prostate
[32] = test system: COLO 205 colon
[33] = test system: HL-60(TB) leukemia
[34] = test system: RPMI-8226 leukemia
[35] = test system: UACC-62 melanoma
[36] = test system: SF-268 CNS
[37] = test system: OVCAR-3 ovarian
[38] = test system: A498 renal
[39] = test system: OVCAR-4 ovarian
[40] = test system: NCI/ADR-RES ovarian
[41] = test system: HOP-62 NSCLC
[42] = test system: HT29 colon
[43] = test system: OVCAR-8 ovarian
[44] = test system: SW-620 colon
[45] = test system: KM12 colon
[46] = test system: M14 melanoma
[47] = test system: NCI-H226 lung
[48] = test system: SF-539 CNS
[49] = test system: SK-OV-3 ovarian
[50] = test system: UO-31 renal
[51] = test system: NCI-H460 lung
[52] = test system: MALME-3M melanoma
[53] = test system: HOP-92 NSCLC
[54] = test system: A549 NSCLC
[55] = test system: NCI-H522 lung

Molecule `CCn1cc(C(=O)O)c(=O)c2cc(F)c(N3CCN(S(=O)(=O)c4ccc(Cl)cc4)CC3)cc21` has a GI50 [1] of 2.75 µM, a TGI [1] of 7.06 µM and a GI50 [2] of 3.97 µM. It also gave a TGI [2] of over 100 µM, a GI50 [3] of 2.98 µM and a TGI [3] of over 100 µM. For the same molecule, the GI50 [4] was 4.52 µM, the TGI [4] was over 100 µM and the GI50 [5] was 3.2 µM. It also gave a TGI [5] of 14.3 µM, a GI50 [6] of 4.88 µM and a TGI [6] of over 100 µM. The GI50 [7] was 3.32 µM, the TGI [7] was over 100 µM and the GI50 [8] was 3.18 µM. For the same molecule, the TGI [8] was over 100 µM, the GI50 [9] was 3.62 µM and the TGI [9] was over 100 µM. For the same molecule, the GI50 [10] was 4.11 µM, the TGI [10] was over 100 µM and the GI50 [11] was 2.91 µM. The TGI [11] was over 100 µM, the GI50 [12] was 2.16 µM and the TGI [12] was 5.5 µM. For the same molecule, the GI50 [13] was 3.1 µM, the TGI [13] was over 100 µM and the GI50 [14] was 3.83 µM. For the same molecule, the TGI [14] was over 100 µM, the GI50 [15] was 3.77 µM and the TGI [15] was over 100 µM. The GI50 [16] was 3.73 µM, the TGI [16] was over 100 µM and the GI50 [17] was 1.8 µM. The TGI [17] was 3.51 µM, the GI50 [18] was 2.25 µM and the TGI [18] was 9.89 µM. The GI50 [19] was 2.51 µM, the TGI [19] was over 100 µM and the GI50 [20] was 2.47 µM. For the same molecule, the TGI [20] was 7.55 µM, the GI50 [21] was 2.93 µM and the TGI [21] was over 100 µM. The GI50 [22] was 2.92 µM, the TGI [22] was over 100 µM and the GI50 [23] was 3.78 µM. For the same molecule, the TGI [23] was 11.8 µM, the GI50 [24] was 4.1 µM and the TGI [24] was over 100 µM. It also gave a GI50 [25] of 2.44 µM, a TGI [25] of 7.27 µM and a GI50 [26] of 2.67 µM. For the same molecule, the TGI [26] was 7.15 µM, the GI50 [27] was 3.09 µM and the TGI [27] was 9.87 µM. It also gave a GI50 [28] of 2.57 µM, a TGI [28] of 5.67 µM and a GI50 [29] of 4.25 µM. It also gave a TGI [29] of over 100 µM, a GI50 [30] of 2.6 µM and a TGI [30] of 9.81 µM. For the same molecule, the GI50 [31] was 2.31 µM, the TGI [31] was 8.22 µM and the GI50 [32] was 2.62 µM. The TGI [32] was 5.84 µM, the GI50 [33] was 2.18 µM and the TGI [33] was 4.81 µM. It also gave a GI50 [34] of 3.08 µM, a TGI [34] of over 100 µM and a GI50 [35] of 2.02 µM. For the same molecule, the TGI [35] was 7.44 µM, the GI50 [36] was 3.85 µM and the TGI [36] was over 100 µM. The GI50 [37] was 3.51 µM, the TGI [37] was over 100 µM and the GI50 [38] was 1.81 µM. It also gave a TGI [38] of 7.47 µM, a GI50 [39] of 2.2 µM and a TGI [39] of 7.57 µM. The GI50 [40] was 2.98 µM, the TGI [40] was 8.99 µM and the GI50 [41] was 4.47 µM. For the same molecule, the TGI [41] was over 100 µM, the GI50 [42] was 2.64 µM and the TGI [42] was 6.21 µM. It also gave a GI50 [43] of 2.8 µM, a TGI [43] of over 100 µM and a GI50 [44] of 3.43 µM. The TGI [44] was over 100 µM, the GI50 [45] was 4.07 µM and the TGI [45] was over 100 µM. It also gave a GI50 [46] of 2.85 µM, a TGI [46] of over 100 µM and a GI50 [47] of 3.02 µM. For the same molecule, the TGI [47] was over 100 µM, the GI50 [48] was 4.12 µM and the TGI [48] was over 100 µM. For the same molecule, the GI50 [49] was 3.28 µM, the TGI [49] was 9.23 µM and the GI50 [50] was 2.07 µM. For the same molecule, the TGI [50] was 7.66 µM, the GI50 [51] was 3.16 µM and the TGI [51] was over 100 µM. It also gave a GI50 [52] of 1.99 µM and a TGI [52] of 5.25 µM.
`CN1CCN(CCCOc2ccc3nc(Nc4cc(Cl)cc(Cl)c4)ccc3c2)CC1` gave a GI50 [1] of 1.82 µM, a TGI [1] of 3.72 µM and a GI50 [3] of 1.48 µM. It also gave a TGI [3] of 3.05 µM, a GI50 [4] of 1.87 µM and a TGI [4] of 5.24 µM. For the same molecule, the GI50 [5] was 1.99 µM, the TGI [5] was 4.39 µM and the GI50 [6] was 1.63 µM. For the same molecule, the TGI [6] was 3.21 µM, the GI50 [7] was 1.33 µM and the TGI [7] was 2.93 µM. It also gave a GI50 [8] of 1.58 µM, a TGI [8] of 2.98 µM and a GI50 [9] of 0.677 µM. It also gave a TGI [9] of 2.11 µM, a GI50 [10] of 1.57 µM and a TGI [10] of 3.07 µM. It also gave a GI50 [12] of 2.13 µM, a TGI [12] of 3.85 µM and a GI50 [13] of 1.61 µM. The TGI [13] was 3.13 µM, the GI50 [15] was 1.58 µM and the TGI [15] was 3.08 µM. For the same molecule, the GI50 [16] was 2.33 µM, the TGI [16] was 3.92 µM and the GI50 [17] was 1.76 µM. For the same molecule, the TGI [17] was 3.31 µM, the GI50 [18] was 1.63 µM and the TGI [18] was 3.38 µM. For the same molecule, the GI50 [19] was 1.56 µM, the TGI [19] was 3.31 µM and the GI50 [20] was 1.5 µM. It also gave a TGI [20] of 2.94 µM, a GI50 [22] of 1.81 µM and a TGI [22] of 3.77 µM. For the same molecule, the GI50 [23] was 1.41 µM, the TGI [23] was 2.89 µM and the GI50 [24] was 1.54 µM. It also gave a TGI [24] of 3.06 µM, a GI50 [25] of 1.9 µM and a TGI [25] of 3.58 µM. It also gave a GI50 [26] of 1.63 µM, a TGI [26] of 3.54 µM and a GI50 [27] of 1.51 µM. It also gave a TGI [27] of 2.9 µM, a GI50 [28] of 2.03 µM and a TGI [28] of 4.04 µM. For the same molecule, the GI50 [29] was 1.71 µM, the TGI [29] was 3.35 µM and the GI50 [30] was 1.11 µM. For the same molecule, the TGI [30] was 2.56 µM, the GI50 [53] was 1.46 µM and the TGI [53] was 3.2 µM. For the same molecule, the GI50 [31] was 1.93 µM, the TGI [31] was 3.71 µM and the GI50 [34] was 2.16 µM. For the same molecule, the TGI [34] was 4.78 µM, the GI50 [35] was 1.81 µM and the TGI [35] was 3.76 µM. The GI50 [36] was 1.48 µM, the TGI [36] was 3.02 µM and the GI50 [37] was 1.56 µM. It also gave a TGI [37] of 3.22 µM, a GI50 [38] of 1.8 µM and a TGI [38] of 3.22 µM. It also gave a GI50 [39] of 1.79 µM, a TGI [39] of 5.65 µM and a GI50 [40] of 1.99 µM. It also gave a TGI [40] of 5.78 µM, a GI50 [42] of 0.548 µM and a TGI [42] of 1.84 µM. The GI50 [44] was 1.68 µM, the TGI [44] was 3.46 µM and the GI50 [45] was 1.53 µM. The TGI [45] was 2.99 µM, the GI50 [54] was 2.11 µM and the TGI [54] was 3.8 µM. It also gave a GI50 [46] of 1.5 µM, a TGI [46] of 3.08 µM and a GI50 [47] of 2.14 µM. For the same molecule, the TGI [47] was 5.68 µM, the GI50 [49] was 2 µM and the TGI [49] was 3.69 µM. It also gave a GI50 [55] of 2.06 µM, a TGI [55] of 3.74 µM and a GI50 [50] of 1.58 µM. The TGI [50] was 3.24 µM, the GI50 [51] was 1.54 µM and the TGI [51] was 3.18 µM.

— PubChem BioAssay (NCI)
